# Laboratory results reported in patent US7045520B2, “Opioid receptor active compounds” (The Curators of the University of Missouri, priority 2002, dated 2006).
# Legend:
# murine δ opioid receptor [1] = experiment: biochemical; format: binding; settings: for Selectivity for δ receptor (δ/κ): ratio of receptor affinities δ to κ; for Selectivity for δ Receptor (δ/μ): ratio of receptor affinities δ to μ
# Protocol: (§1) Competitive Binding Assays. Human embryonic kidney (HEK) 293 cells (ATCC CRL, 1573) were cultured at 37° C. in Dulbecco's modified Eagle's medium supplemented with 10% fetal bovine serum, 100 units/ml penicillin and 100 μg/ml streptomycin sulfate. HEK293 cells were transfected by electroporation with expression plasmids encoding murine δ or μ opioid receptors tagged at the amino termini with the FLAG-tag epitope or the human κ receptor. Cells stably expressing opioid receptors were selected in media containing 0.75 mg/ml G418 (Life Technologies, Gaithersburg, Md.).
# (§2) Cell membrane preparations were collected from the stable transfectants described above. Opioid receptor binding assays were conducted in duplicate on membrane preparations that had been resuspended in 50 mM Tris-HCL, pH 7.5, utilizing [9-^3H]bremazocine (specific activity 2.6 Ci/mmol, NEN, Boston, Mass.) as radioligand and 10 μM cyclazocine to define non-specific binding. Following a one-hour incubation on ice, binding assays were terminated by filtration through Whatman GF/B filters. Filters were soaked in Ecoscint liquid scintillation solution (National Diagnostics, Manville, N.J.) and filter-bound radioactivity was measured using a Packard Tri-Carb 2100 TR liquid scintillation analyzer. Receptor binding data were analyzed by non-linear regression of saturation and competition curves using Prism 3.0 software (GraphPad Software, San Diego, Calif.). Protein concentrations were determined with the Bio-Rad protein microassay (Hercules, Calif.) using bovine serum albumin as standard.
# (§3) The binding affinities for compounds listed in Table 1 (4a-c and 5a-c) were determined by competition of [9-^3H]bremazocine binding to membranes prepared from stable cells expressing either the cloned μ, δ, or κ opioid receptors as described in the above sections.
# (§4) To determine the selectivity profile of compound 5c toward the cloned opioid receptors, competitive binding assays were performed in the presence of increasing concentrations of compound 5c.
# (§5) Preliminary Test for Agonist vs. Antagonist Activity. A simple method to determine whether a compound is acting as an agonist or antagonist at a G-Protein coupled receptor is to perform the competitive binding assay in the presence of 100 mM NaCl. The presence of NaCl in the resuspension buffer will result in about a 4 fold decrease in binding affinity for an opioid receptor agonist, whereas an antagonist will show about a 1 fold increase in receptor affinity.
# murine δ opioid receptor [2] = target: T1, murine δ opioid receptor (Mus musculus, UniProt P32300); experiment: biochemical; format: binding; settings: for Receptor Affinity (relative to 100%) δ: single concentration, 20 μM
# T1 construct: expressed in transfected cells
# Protocol: as §1, §2, §3, §4, §5
# murine μ opioid receptor = target: T2, murine μ opioid receptor (Mus musculus, UniProt P42866); experiment: Competitive binding assay, [9-3H]bremazocine, membranes of stably transfected HEK293 cells; settings: for Receptor Affinity (relative to 100%) μ: single concentration, 20 μM; for Ki: average observed, from IC50 by Cheng-Prusoff, read-out: Inhibition Constant, Ki μ
# T2 construct: expressed in transfected cells
# Protocol: as §1, §2, §3, §4, §5
# human κ receptor = target: T3, human κ receptor (Homo sapiens, UniProt P41145); experiment: as above; settings: for Receptor Affinity (relative to 100%) κ: single concentration, 20 μM; for Ki: average observed, from IC50 by Cheng-Prusoff, read-out: Inhibition Constant, Ki κ
# T3 construct: expressed in transfected cells
# Protocol: as §1, §2, §3, §4, §5
# [3] = 100 mM NaCl in resuspension buffer
# [4] = Inhibition Constant, Ki δ, average observed, from IC50 by Cheng-Prusoff
Structure (SMILES),melting point,Selectivity for δ receptor (δ/κ) (murine δ opioid receptor [1]),Selectivity for δ Receptor (δ/μ) (murine δ opioid receptor [1]),Receptor Affinity (relative to 100%) δ (murine δ opioid receptor [2]),Receptor Affinity (relative to 100%) μ (murine μ opioid receptor),Receptor Affinity (relative to 100%) κ (human κ receptor),"selectivity among the three receptor subtypes (murine δ opioid receptor [1]; at 20 μM, μ, δ, κ)","increase in binding affinity in the presence of NaCl, δ (murine δ opioid receptor [2]; [3])",Ki (murine δ opioid receptor [2]; [4]),"Ki (murine δ opioid receptor [2]; binding affinity for the δ opioid receptor, summary of Table 3)","agonist vs. antagonist activity, δ (murine δ opioid receptor [2]; preliminary test, 100 mM NaCl)","increase in binding affinity in the presence of NaCl, μ (murine μ opioid receptor; [3])",Ki (murine μ opioid receptor),"agonist vs. antagonist activity, μ (murine μ opioid receptor; preliminary test, 100 mM NaCl)","increase in binding affinity in the presence of NaCl, κ (human κ receptor; [3])",Ki (human κ receptor),"agonist vs. antagonist activity, κ (human κ receptor; preliminary test, 100 mM NaCl)"
"COc1cccc(-n2cnnc2-c2cccc(C(C)(C)C)c2)c1 [Compound 4c, 1-{3-[3-(tert-Butyl)phenyl]-(1,2,4-triazol-4-yl)}-3-methoxybenzene]",175 to 175.5 °C,0.07,0.11,2%,19%,27%,–,–,–,–,–,–,–,–,–,–,–
"COc1cccc(-n2cnnc2-c2ccc(C(C)(C)C)cc2)c1 [Compound 4a, 1-{3-[4-(tert-Butyl)phenyl]-(1,2,4-triazol-4-yl)}-3-methoxybenzene]",118.2 to 118.8 °C,1.72,2.21,31%,14%,18%,–,–,–,–,–,–,–,–,–,–,–
"CC(C)(C)c1cccc(-c2nncn2-c2cccc(O)c2)c1 [Compound 5c, 1-{3-[3-(tert-Butyl)phenyl]-(1,2,4-triazol-4-yl)}-3-phenol]",242.5 to 243.5 °C,0.46,0.54,39%,72%,85%,non-selective,~1 fold,136 nM,~100 nM,antagonist,~1 fold,444 nM,antagonist,~1 fold,1390 nM,antagonist
"CN(C)c1nnc(-c2ccc(C(C)(C)C)cc2)n1-c1cccc(O)c1 [Compound 5d, 1-{3-[4-(tert-butyl)phenyl]-5-N,N-dimethylamino-(1,2,4-triazol-4-yl)}-3-phenol]",–,–,–,–,–,–,–,–,300 nM,–,–,–,4000 nM,–,–,> 10000 nM,–
"COc1cccc(-n2cnnc2-c2cc(C(C)(C)C)ccc2OC)c1 [Compound 4b, 1-{3-[5-(tert-Butyl)-2-methoxyphenyl](1,2,4-triazol-4-yl)}-3-methoxybenzene]",119.5 to 120 °C,0.30,0.27,8%,20%,27%,–,–,–,–,–,–,–,–,–,–,–
"CC(C)(C)c1ccc(O)c(-c2nncn2-c2cccc(O)c2)c1 [Compound 5b, 1-{3-[5-(tert-Butyl)-2-hydroxyphenyl]-(1,2,4-triazol-4-yl)}-3-phenol]",–,–,–,~0%,21%,20%,–,–,–,–,–,–,–,–,–,–,–
"CC(C)(C)c1ccc(-c2nncn2-c2cccc(O)c2)cc1 [Compound 5a, 1-{3-[4-(tert-Butyl)phenyl]-(1,2,4-triazol-4-yl)}-3-phenol]",–,0.44,1.17,21%,18%,48%,–,–,–,–,–,–,–,–,–,–,–
